Assay results as given in patent publication US20100298141A1, “SUBSTITUTED PYRIDINE N-OXIDE HERBICIDES” (E. I. DU PONT DE NEMOURS AND COMPANY, priority 2007, published 2010).

Assays:
[1] = system: redroot pigweed; test: Test A pre-/postemergence greenhouse test; assay type: in vivo, Amaranthus retroflexus; conditions: for Plant response rating, Pigweed: 0 to 100 scale where 0 is no effect and 100 is complete control; for Pigweed plant response rating: 0 to 100 scale
Procedure, shortened: (§1)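 Pre: directed soil spray on seeded loam/sand. Post: foliar spray, plants 2–10 cm, 1–2 leaf stage, applied concurrently. Vehicle: non-phytotoxic solvent + surfactant. Greenhouse ~10 d; visual injury rating vs untreated controls.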

[2] = system: duck salad; test: Test C flooded paddy test; assay type: in vivo, Heteranthera limosa; conditions: Flood
Procedure, shortened: (§2)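 Pots were flooded to 3 cm above the soil surface at treatment, compound applied directly to the paddy water, and that depth held throughout. Plants were kept in a greenhouse for 13 to 15 days, then visually rated against untreated controls.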

[3] = system: giant foxtail; test: Test A pre-/postemergence greenhouse test; assay type: in vivo, Setaria faberi; conditions: for Plant response rating, Foxtail, Giant: 0 to 100 scale where 0 is no effect and 100 is complete control; for Foxtail, Giant plant response rating: 0 to 100 scale
Procedure, shortened: as §1

[4] = system: barnyardgrass; test: Test A pre-/postemergence greenhouse test; assay type: in vivo, Echinochloa crus-galli; conditions: for Plant response rating, Barnyardgrass: 0 to 100 scale where 0 is no effect and 100 is complete control; for Barnyardgrass plant response rating: 0 to 100 scale
Procedure, shortened: as §1

[5] = system: wheat; test: Test A pre-/postemergence greenhouse test; assay type: in vivo, Triticum aestivum; conditions: for Plant response rating, Wheat: 0 to 100 scale where 0 is no effect and 100 is complete control; for Wheat plant response rating: 0 to 100 scale
Procedure, shortened: as §1

[6] = system: velvetleaf; test: Test A pre-/postemergence greenhouse test; assay type: in vivo, Abutilon theophrasti; conditions: for Plant response rating, Velvetleaf: 0 to 100 scale where 0 is no effect and 100 is complete control; for Velvetleaf plant response rating: 0 to 100 scale
Procedure, shortened: as §1

[7] = system: corn; test: Test A pre-/postemergence greenhouse test; assay type: in vivo, Zea mays; conditions: for Plant response rating, Corn: 0 to 100 scale where 0 is no effect and 100 is complete control; for Corn plant response rating: 0 to 100 scale
Procedure, shortened: as §1

[8] = system: barnyardgrass; test: Test C flooded paddy test; assay type: in vivo, Echinochloa crus-galli; conditions: Flood
Procedure, shortened: as §2

[9] = system: rice; test: Test C flooded paddy test; assay type: in vivo, Oryza sativa; conditions: Flood
Procedure, shortened: as §2

[10] = system: morningglory; test: Test A pre-/postemergence greenhouse test; assay type: in vivo, Ipomoea spp.; conditions: for Plant response rating, Morningglory: 0 to 100 scale where 0 is no effect and 100 is complete control; for Morningglory plant response rating: 0 to 100 scale
Procedure, shortened: as §1

[11] = system: umbrella sedge; test: Test C flooded paddy test; assay type: in vivo, Cyperus difformis; conditions: Flood
Procedure, shortened: as §2

[12] = system: crabgrass; test: Test A pre-/postemergence greenhouse test; assay type: in vivo, Digitaria sanguinalis; conditions: for Plant response rating, Crabgrass, Large: 0 to 100 scale where 0 is no effect and 100 is complete control; for Crabgrass, Large plant response rating: 0 to 100 scale
Procedure, shortened: as §1

[13] = Postemergence, 500 g ai/ha, 0 is no effect, 100 is complete control
[14] = Preemergence, 125 g ai/ha, 0 no effect, 100 complete control
[15] = 62 g ai/ha, scale 0 to 100 (0 no effect, 100 complete control)
[16] = 250 g ai/ha, scale 0 to 100, 0 no effect, 100 complete control, 13 to 15 days
[17] = Preemergence, 500 g ai/ha, 0 no effect, 100 complete control

| SMILES | Plant response rating, Pigweed ([1]; Postemergence, 125 g ai/ha) | Pigweed plant response rating [1, 13] | Pigweed plant response rating [1, 14] | Plant response rating, Ducksalad [2, 15] | Plant response rating, Ducksalad [2, 16] | Plant response rating, Foxtail, Giant ([3]; Postemergence, 125 g ai/ha) | Foxtail, Giant plant response rating [3, 13] | Foxtail, Giant plant response rating [3, 14] | Plant response rating, Barnyardgrass ([4]; Postemergence, 125 g ai/ha) | Barnyardgrass plant response rating [4, 13] | Barnyardgrass plant response rating [4, 14] | Plant response rating, Wheat ([5]; Postemergence, 125 g ai/ha) | Wheat plant response rating [5, 13] | Wheat plant response rating [5, 14] | Wheat plant response rating [5, 17] | Plant response rating, Velvetleaf ([6]; Postemergence, 125 g ai/ha) | Velvetleaf plant response rating [6, 13] | Velvetleaf plant response rating [6, 14] | Velvetleaf plant response rating [6, 17] | Plant response rating, Corn ([7]; Postemergence, 125 g ai/ha) | also measured |
| --- | --- | --- | --- | --- | --- | --- | --- | --- | --- | --- | --- | --- | --- | --- | --- | --- | --- | --- | --- | --- | --- |
| Cc1cc[n+]([O-])c(S(=O)(=O)Cc2c(C(F)(F)F)nn(C)c2OCC(F)(F)C(F)(F)F)c1 [Compound 98] | 0 | 20 | 20 | 0 | 0 | 20 | 80 | 50 | 0 | 70 | 60 | 0 | 0 | 0 | 20 | 0 | 40 | 0 | 50 | 30 | Plant response rating, Pigweed ([1]; Preemergence, 500 g ai/ha): 60; Plant response rating, Foxtail, Giant ([3]; Preemergence, 500 g ai/ha): 100; Plant response rating, Barnyardgrass ([4]; Preemergence, 500 g ai/ha): 100; Corn plant response rating [7, 13]: 30; Corn plant response rating [7, 14]: 0; Plant response rating, Corn ([7]; Preemergence, 500 g ai/ha): 0; Plant response rating, Barnyardgrass [8, 15]: 0; Plant response rating, Barnyardgrass [8, 16]: 0; Plant response rating, Rice [9, 15]: 0; Plant response rating, Rice [9, 16]: 0; Plant response rating, Morningglory ([10]; Postemergence, 125 g ai/ha): 10; Morningglory plant response rating [10, 13]: 80; Morningglory plant response rating [10, 14]: 0; Plant response rating, Morningglory ([10]; Preemergence, 500 g ai/ha): 50; Plant response rating, Sedge, Umbrella [11, 15]: 0; Plant response rating, Sedge, Umbrella [11, 16]: 0; Plant response rating, Crabgrass, Large ([12]; Postemergence, 125 g ai/ha): 10; Crabgrass, Large plant response rating [12, 13]: 70; Crabgrass, Large plant response rating [12, 14]: 30; Plant response rating, Crabgrass, Large ([12]; Preemergence, 500 g ai/ha): 90 |
| CC(C)c1cc[n+]([O-])c([S+]([O-])Cc2c(C(F)(F)F)nn(C)c2OCC(F)(F)F)c1 (centres unmarked) [Compound 104] | 50 | 90 | 90 | 30 | 80 | 80 | 90 | 90 | 50 | 90 | 40 | 50 | 60 | 50 | 100 | 50 | 70 | 40 | 80 | 50 | Pigweed plant response rating [1, 17]: 100; Foxtail, Giant plant response rating [3, 17]: 100; Barnyardgrass plant response rating [4, 17]: 100; Corn plant response rating [7, 13]: 70; Corn plant response rating [7, 14]: 40; Corn plant response rating [7, 17]: 70; Plant response rating, Barnyardgrass [8, 15]: 0; Plant response rating, Barnyardgrass [8, 16]: 20; Plant response rating, Rice [9, 15]: 10; Plant response rating, Rice [9, 16]: 15; Plant response rating, Morningglory ([10]; Postemergence, 125 g ai/ha): 30; Morningglory plant response rating [10, 13]: 100; Morningglory plant response rating [10, 14]: 50; Morningglory plant response rating [10, 17]: 100; Plant response rating, Sedge, Umbrella [11, 15]: 0; Plant response rating, Sedge, Umbrella [11, 16]: 80; Plant response rating, Crabgrass, Large ([12]; Postemergence, 125 g ai/ha): 40; Crabgrass, Large plant response rating [12, 13]: 90; Crabgrass, Large plant response rating [12, 14]: 80; Crabgrass, Large plant response rating [12, 17]: 100 |
